Experimental data: the NIST ThermoML archive (doi:10.1016/j.tca.2005.10.007)

Assay: xn = mol fraction of the nth substance listed
Conditions: 101 kPa, Liquid, Vibrating tube method

CC(O)CN (configuration not stated) [1-amino-2-propanol] + O
mass density [kg/m3]
Conditions | 283.15 K | 288.15 K | 293.15 K | 298.15 K | 303.15 K | 308.15 K | 313.15 K | 318.15 K
x2 = 0.0438 | 970.22 | 966.31 | 962.38 | 958.41 | 954.42 | 950.39 | 946.34 | 942.26
x2 = 0.0801 | 971.77 | 967.87 | 963.94 | 959.99 | 956.01 | 952 | 947.96 | 943.89
x2 = 0.1269 | 974.08 | 970.22 | 966.31 | 962.38 | 958.41 | 954.42 | 950.39 | 946.33
x2 = 0.1584 | 975.52 | 971.66 | 967.77 | 963.84 | 959.89 | 955.9 | 951.88 | 947.83
x2 = 0.2003 | 977.67 | 973.82 | 969.94 | 966.03 | 962.09 | 958.11 | 954.1 | 950.06
x2 = 0.2999 | 983.38 | 979.58 | 975.73 | 971.85 | 967.94 | 963.99 | 960 | 955.98
x2 = 0.3498 | 986.51 | 982.72 | 978.89 | 975.02 | 971.12 | 967.18 | 963.21 | 959.19
x2 = 0.3999 | 989.63 | 985.84 | 982.02 | 978.16 | 974.27 | 970.34 | 966.36 | 962.35
x2 = 0.4499 | 993.04 | 989.26 | 985.45 | 981.59 | 977.71 | 973.78 | 969.81 | 965.8
x2 = 0.4968 | 996.4 | 992.66 | 988.85 | 985 | 981.12 | 977.19 | 973.23 | 969.22
x2 = 0.5122 | 997.62 | 993.86 | 990.05 | 986.21 | 982.33 | 978.4 | 974.44 | –
x2 = 0.5501 | 1000.3 | 996.55 | 992.74 | 988.89 | 985.01 | 981.09 | 977.12 | –
x2 = 0.6001 | 1004.18 | 1000.45 | 996.65 | 992.81 | 988.93 | 985.01 | 981.05 | –
x2 = 0.6501 | 1007.83 | 1004.09 | 1000.3 | 996.47 | 992.61 | 988.7 | 984.75 | –
x2 = 0.7 | 1011.17 | 1007.46 | 1003.71 | 999.92 | 996.09 | 992.22 | 988.3 | –
x2 = 0.7501 | 1013.81 | 1010.2 | 1006.54 | 1002.84 | 999.1 | 995.31 | 991.48 | –
x2 = 0.8 | 1014.93 | 1011.54 | 1008.08 | 1004.58 | 1001.02 | 997.41 | 993.74 | –
x2 = 0.84 | 1014.28 | 1011.22 | 1008.08 | 1004.86 | 1001.58 | 998.22 | 994.79 | –
x2 = 0.88 | 1011.59 | 1009.04 | 1006.38 | 1003.61 | 1000.73 | 997.76 | 994.67 | –
x2 = 0.92 | 1007.29 | 1005.41 | 1003.37 | 1001.17 | 998.83 | 996.33 | 993.7 | –
x2 = 0.96 | 1002.39 | 1001.24 | 999.86 | 998.26 | 996.47 | 994.49 | 992.33 | –
